Experiments:
[1] = biological target: T1, G12D-mutant human KRAS (amino acid residues 1-188) (Homo sapiens, UniProt P01116, G12D); experiment: KRAS Binding Disruption Assay (AlphaScreen; biotinylated KRpep-2d analogue or RAF1-RBD), G12D; conditions: KRAS G12D; geometric mean; read-out: KRAS GMean IC50 (uM) MUTATION: G12D
T1 construct: G12D or G12C-mutant human KRAS (amino acid residues 1-188) with FLAG tag; made in house; host or cells: E. coli
Summary of the method: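 Displacement format with mutant KRAS, biotinylated KRpep-2d analogue or RAF1-RBD (5-20 nM each) at pH 7.5 with 5 mM MgCl2.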

[2] = biological target: T2, G12V-mutant human KRAS (amino acid residues 1-188) (Homo sapiens, UniProt P01116, G12V); experiment: KRAS Binding Competition Assay (AlphaScreen; biotinylated KRpep-2d analogue), G12V; conditions: geometric mean, read-out: KRAS GMean IC50 (uM) MUTATION: G12V
T2 construct: G12V-mutant human KRAS (amino acid residues 1-188) with FLAG tag was purified from E. coli; made in house; host or cells: E. coli

Compound	IC50 [1]	IC50 [2]
CN1CCC[C@H]1COc1nc(N2C[C@H]3CC[C@@H](C2)N3CC(O)CO)c2ccc(-c3cc(O)cc4ccccc34)c(F)c2n1 (stereo partly drawn) [P-0472, 3-((1R,5S)-3-(8-fluoro-7-(3-hydroxynaphthalen-1-yl)-2-(((S)-1-methylpyrrolidin-2-yl)methoxy)quinazolin-4-yl)-3,8-diazabicyclo[3.2.1]octan-8-yl)propane-1,2-diol]	0.0001 to 10 µM	0.0001 to 10 µM
COc1ccc2c(-c3c(F)cc4c(N5C[C@H]6CC[C@@H](C5)N6)nc(OC[C@@H]5CCCN5C)nc4c3F)c[nH]c2c1 [P-0473, 4-((1R,5S)-3,8-diazabicyclo[3.2.1]octan-3-yl)-6,8-difluoro-7-(6-methoxy-1H-indol-3-yl)-2-(((S)-1-methylpyrrolidin-2-yl)methoxy)quinazoline]	100 to 1000 µM	100 to 1000 µM
Cc1c(-c2c(F)cc3c(N4C[C@H]5CC[C@@H](C4)N5)nc(OC[C@@H]4CCCN4C)nc3c2F)cccc1C(F)(F)F [P-0474, 4-((1R,5S)-3,8-diazabicyclo[3.2.1]octan-3-yl)-6,8-difluoro-7-(2-methyl-3-(trifluoromethyl)phenyl)-2-(((S)-1-methylpyrrolidin-2-yl)methoxy)quinazoline]	0.0001 to 10 µM	10 to 100 µM
CN1CCC[C@H]1COc1nc(N2C[C@H]3CC[C@@H](C2)N3CC(=O)Nc2ccccn2)c2ccc(-c3cc(O)cc4ccccc34)c(F)c2n1 [P-0475, 2-((1R,5S)-3-(8-fluoro-7-(3-hydroxynaphthalen-1-yl)-2-(((S)-1-methylpyrrolidin-2-yl)methoxy)quinazolin-4-yl)-3,8-diazabicyclo[3.2.1]octan-8-yl)-N-(pyridin-2-yl)acetamide]	0.0001 to 10 µM	10 to 100 µM
Fc1c(-c2c(C(F)(F)F)ccc3[nH]ncc23)ccc2c(N3C[C@H]4CC[C@@H](C3)N4)nc(OCC34CCCN3CCC4)nc12 [P-0506, 4-((1R,5S)-3,8-diazabicyclo[3.2.1]octan-3-yl)-8-fluoro-2-((tetrahydro-1H-pyrrolizin-7a(5H)-yl)methoxy)-7-(5-(trifluoromethyl)-1H-indazol-4-yl)quinazoline]	0.0001 to 10 µM	10 to 100 µM
CCc1cccc2[nH]cc(-c3ccc4c(N5C[C@H]6CC[C@@H](C5)N6)nc(OC[C@@]56CCCN5C[C@H](F)C6)nc4c3F)c12 [P-0511, 4-((1R,5S)-3,8-diazabicyclo[3.2.1]octan-3-yl)-7-(4-ethyl-1H-indol-3-yl)-8-fluoro-2-(((2R,7aS)-2-fluorotetrahydro-1H-pyrrolizin-7a(5H)-yl)methoxy)quinazoline]	0.0001 to 10 µM	0.0001 to 10 µM
Nc1cc(-c2c(F)cc3c(N4C[C@H]5CC[C@@H](C4)N5)nc(OCC45CCCN4CCC5)nc3c2F)ccc1Cl [P-0609, 5-(4-((1R,5S)-3,8-diazabicyclo[3.2.1]octan-3-yl)-6,8-difluoro-2-((tetrahydro-1H-pyrrolizin-7a(5H)-yl)methoxy)quinazolin-7-yl)-2-chloroaniline]	10 to 100 µM	100 to 1000 µM
Fc1c(-c2c[nH]c3ccc(C(F)(F)F)cc23)ccc2c(N3C[C@H]4CC[C@@H](C3)N4)nc(OCC34CCCN3CCC4)nc12 [P-0610, 4-((1R,5S)-3,8-diazabicyclo[3.2.1]octan-3-yl)-8-fluoro-2-((tetrahydro-1H-pyrrolizin-7a(5H)-yl)methoxy)-7-(5-(trifluoromethyl)-1H-indol-3-yl)quinazoline]	0.0001 to 10 µM	100 to 1000 µM
CC(C)(C)c1ccc2[nH]cc(-c3ccc4c(N5C[C@H]6CC[C@@H](C5)N6)nc(OCC56CCCN5CCC6)nc4c3F)c2c1 [P-0611, 4-((1R,5S)-3,8-diazabicyclo[3.2.1]octan-3-yl)-7-(5-(tert-butyl)-1H-indol-3-yl)-8-fluoro-2-((tetrahydro-1H-pyrrolizin-7a(5H)-yl)methoxy)quinazoline]	10 to 100 µM	100 to 1000 µM
OCC1(COc2nc(N3C[C@H]4CC[C@@H](C3)N4)c3ccc(-c4cc(O)cc5ccccc45)c(F)c3n2)CCOCC1 [P-0612, 4-(4-((1R,5S)-3,8-diazabicyclo[3.2.1]octan-3-yl)-8-fluoro-2-((4-(hydroxymethyl)tetrahydro-2H-pyran-4-yl)methoxy)quinazolin-7-yl)naphthalen-2-ol]	0.0001 to 10 µM	10 to 100 µM
OCC1(COc2nc(N3C[C@H]4CC[C@@H](C3)N4)c3ccc(-c4cc(O)cc5ccccc45)c(F)c3n2)COC1 [P-0613, 4-(4-((1R,5S)-3,8-diazabicyclo[3.2.1]octan-3-yl)-8-fluoro-2-((3-(hydroxymethyl)oxetan-3-yl)methoxy)quinazolin-7-yl)naphthalen-2-ol]	0.0001 to 10 µM	10 to 100 µM
OCC1(COc2nc(N3C[C@H]4CC[C@@H](C3)N4)c3ccc(-c4cc(O)cc5ccccc45)c(F)c3n2)CC1 [P-0614, 4-(4-((1R,5S)-3,8-diazabicyclo[3.2.1]octan-3-yl)-8-fluoro-2-((l (hydroxymethyl)cyclopropyl)methoxy)quinazolin-7-yl)naphthalen-2-ol]	0.0001 to 10 µM	10 to 100 µM
N#CCc1cccc2[nH]cc(-c3ccc4c(N5C[C@H]6CC[C@@H](C5)N6)nc(OCC56CCCN5CCC6)nc4c3F)c12 [P-0615, 2-(3-(4-((1R,5S)-3,8-diazabicyclo[3.2.1]octan-3-yl)-8-fluoro-2-((tetrahydro-1H-pyrrolizin-7a(5H)-yl)methoxy)quinazolin-7-yl)-1H-indol-4-yl)acetonitrile]	0.0001 to 10 µM	10 to 100 µM
CNC(=O)CCOc1nc(N2C[C@H]3CC[C@@H](C2)N3)c2ccc(-c3cc(O)cc4ccccc34)c(F)c2n1 [P-0616, 3-((4-((1R,5S)-3,8-diazabicyclo[3.2.1]octan-3-yl)-8-fluoro-7-(3-hydroxynaphthalen-1-yl)quinazolin-2-yl)oxy)-N-methylpropanamide]	0.0001 to 10 µM	10 to 100 µM
Oc1cc(-c2ccc3c(N4C[C@H]5CC[C@@H](C4)N5)nc(OCC4CCC4O)nc3c2F)c2ccccc2c1 (stereo partly drawn) [P-0617, 4-(4-((1R,5S)-3,8-diazabicyclo[3.2.1]octan-3-yl)-8-fluoro-2-((2-hydroxycyclobutyl)methoxy)quinazolin-7-yl)naphthalen-2-ol]	0.0001 to 10 µM	10 to 100 µM
CC(C)(CN)COc1nc(N2C[C@H]3CC[C@@H](C2)N3)c2ccc(-c3cc(O)cc4ccccc34)c(F)c2n1 [P-0618, 4-(2-(3-amino-2,2-dimethylpropoxy)-4-((1R,5S)-3,8-diazabicyclo[3.2.1]octan-3-yl)-8-fluoroquinazolin-7-yl)naphthalen-2-ol]	0.0001 to 10 µM	10 to 100 µM
CC(C)(COc1nc(N2C[C@H]3CC[C@@H](C2)N3)c2ccc(-c3cc(O)cc4ccccc34)c(F)c2n1)NC(N)=O [P-0619, 1-(1-((4-((1R,5S)-3,8-diazabicyclo[3.2.1]octan-3-yl)-8-fluoro-7-(3-hydroxynaphthalen-1-yl)quinazolin-2-yl)oxy)-2-methylpropan-2-yl)urea]	0.0001 to 10 µM	10 to 100 µM
CC(C)(COc1nc(N2C[C@H]3CC[C@@H](C2)N3)c2ccc(-c3cc(O)cc4ccccc34)c(F)c2n1)C(N)=O [P-0620, 3-((4-((1R,5S)-3,8-diazabicyclo[3.2.1]octan-3-yl)-8-fluoro-7-(3-hydroxynaphthalen-1-yl)quinazolin-2-yl)oxy)-2,2-dimethylpropanamide]	0.0001 to 10 µM	10 to 100 µM
CNC(=O)C(C)(C)COc1nc(N2C[C@H]3CC[C@@H](C2)N3)c2ccc(-c3cc(O)cc4ccccc34)c(F)c2n1 [P-0621, 3-((4-((1R,5S)-3,8-diazabicyclo[3.2.1]octan-3-yl)-8-fluoro-7-(3-hydroxynaphthalen-1-yl)quinazolin-2-yl)oxy)-N,2,2-trimethylpropanamide]	0.0001 to 10 µM	10 to 100 µM
Oc1cc(-c2ccc3c(N4CC5CCC(C4)N5)nc(OCC4CCC(O)C4)nc3c2F)c2ccccc2c1 [P-0622, 4-(4-((1R,5S)-3,8-diazabicyclo[3.2.1]octan-3-yl)-8-fluoro-2-((3-hydroxycyclopentyl)methoxy)quinazo-lin-7-yl)naphthalen-2-ol]	0.0001 to 10 µM	10 to 100 µM
CN1CCc2c(cccc2Oc2nc(N3C[C@H]4CC[C@@H](C3)N4)c3ccc(-c4cc(O)cc5ccccc45)c(F)c3n2)C1 [P-0623, 4-(4-((1R,5S)-3,8-diazabicyclo[3.2.1]octan-3-yl)-8-fluoro-2-((2-methyl-1,2,3,4-tetrahydroisoquinolin-5-yl)oxy)quinazolin-7-yl)naphthalen-2-ol]	0.0001 to 10 µM	10 to 100 µM
O=Cc1cccc2[nH]cc(-c3c(F)cc4c(N5C[C@H]6CC[C@@H](C5)N6)nc(OCC56CCCN5CCC6)nc4c3F)c12 [P-0624, 3-(4-((1R,5S)-3,8-diazabicyclo[3.2.1]octan-3-yl)-6,8-difluoro-2-((tetrahydro-1H-pyrrolizin-7a(5H)-yl)methoxy)quinazolin-7-yl)-1H-indole-4-carbaldehyde]	0.0001 to 10 µM	10 to 100 µM
Fc1c(-c2c[nH]c3cccc(C(F)F)c23)ccc2c(N3C[C@H]4CC[C@@H](C3)N4)nc(OCC34CCCN3CCC4)nc12 [P-0625, 4-((1R,5S)-3,8-diazabicyclo[3.2.1]octan-3-yl)-7-(4-(difluoromethyl)-1H-indol-3-yl)-8-fluoro-2-((tetrahydro-1H-pyrrolizin-7a(5H)-yl)methoxy)quinazoline]	0.0001 to 10 µM	0.0001 to 10 µM
Cc1[nH]c2ccccc2c1-c1ccc2c(N3C[C@H]4CC[C@@H](C3)N4)nc(OCC34CCCN3CCC4)nc2c1F [P-0626, 4-((1R,5S)-3,8-diazabicyclo[3.2.1]octan-3-yl)-8-fluoro-7-(2-methyl-1H-indol-3-yl)-2-((tetrahydro-1H-pyrrolizin-7a(5H)-yl)methoxy)quinazoline]	0.0001 to 10 µM	10 to 100 µM

— patent US20230081426A1, “COMPOUNDS AND METHODS FOR KRAS MODULATION AND INDICATIONS THEREFOR” (Plexxikon Inc., priority 2020, published 2023)
